Data on two compounds can be found in patent EP2340832A1, “Morphinan-6-one compounds for the treatment or prevention of neurodegenerative diseases” (Universität Innsbruck, priority 2009, dated 2011).

SMILES strings stand for the structures. Where two headings read alike, the source gives them in different places.

The target of one series is µ opioid receptor (Rattus norvegicus, UniProt P33535). Description: Opioid receptor binding assay, [3H]DAMGO, rat brain membranes. Further details: Membrane fractions were prepared from Sprague-Dawley rat or guinea pig brains; from tissue; host or cells: Sprague-Dawley rat brain (without cerebella) membranes; species or system Sprague-Dawley rat. As for the experimental part: (§1) Briefly, brains without cerebella were homogenised on ice in 5 volumes of ice-cold 50 mM Tris-HCI buffer (pH 7.4) and diluted in 30 volumes of the same buffer. After centrifugation at 40,000 x g for 20 min at 4°C, the pellets were resuspended in 30 volumes of Tris-HCI buffer and incubated at 37 °C for 30 min (rat brain) or for 10 min (guinea pig brain). The centrifugation step was repeated and the final pellets were resuspended in 5 volumes of 50 mM Tris-HCI buffer (pH 7.4) containing 0.32 M sucrose to give a protein concentration of 4 - 6 mg/ml. Protein concentration was determined by the method of Bradford using bovine serum albumin as standard.
µ opioid receptor, sequence (P33535 whole entry): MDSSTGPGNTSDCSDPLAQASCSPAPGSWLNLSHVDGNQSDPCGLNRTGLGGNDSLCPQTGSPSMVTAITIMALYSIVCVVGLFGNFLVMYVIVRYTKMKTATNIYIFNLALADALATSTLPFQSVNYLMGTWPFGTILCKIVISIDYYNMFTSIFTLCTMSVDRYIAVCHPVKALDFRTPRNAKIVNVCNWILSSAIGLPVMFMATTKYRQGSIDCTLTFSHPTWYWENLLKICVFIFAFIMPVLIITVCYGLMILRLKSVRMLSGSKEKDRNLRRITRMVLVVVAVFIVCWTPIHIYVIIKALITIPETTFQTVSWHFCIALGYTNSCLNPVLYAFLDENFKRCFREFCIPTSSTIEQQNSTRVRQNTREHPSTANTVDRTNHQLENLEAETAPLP
(§2) Binding experiments were performed in 50 mM Tris-HCI buffer (pH 7.4) in a final volume of 1 ml containing 0.3 - 0.5 mg protein and different concentrations of the compounds. […] Guinea pig brain membranes were incubated with [^3H]U69,593 (30 min, 30 °C). Non-specific binding was determined in the presence of 10 µM unlabeled naloxone. […] Inhibition constant (Ki) values were calculated from competition binding curves using GraphPad Prism (San Diego, CA, USA) program. The values are expressed as the mean ± S.E.M of 2-4 independent experiments, each performed in duplicate.
(§3) The morphinan-6-one compounds of the present invention were evaluated in in vitro receptor binding assays for their interaction abilities with µ, δ and k opioid receptors. […] The affinities of the compounds at k opioid receptors were determined by displacement of [^3H]U69,593 using guinea pig brain membranes.

Series [1] concerns the target T1, electric eel AChE (EC 3.1.1.7) (Electrophorus electricus, UniProt O42275).
T1 construct: purchased Sigma-Aldrich, Germany
Description: Spectrophotometric assay for AChE inhibitory activity (modified Ellman's method). The series is classed as biochemical. In general terms: In Ellman's method for cholinesterases, released thiocholine reacts with DTNB.

Series [2] has as its system extracellular ACh concentration in the nucleus accumbens. Particulars: for 0AUC120 min (% increase x min) Mean ± SEM: 0 to 120 min; for Increase in ACh release (Peak increase as % of basal output): nucleus accumbens.
Another series deals with T2, k opioid receptors (Cavia porcellus, UniProt P41144).
T2 construct: Membrane fractions were prepared from Sprague-Dawley rat or guinea pig brains; from tissue; host or cells: guinea pig brain (without cerebella) membranes
T2 sequence (P41144 whole entry): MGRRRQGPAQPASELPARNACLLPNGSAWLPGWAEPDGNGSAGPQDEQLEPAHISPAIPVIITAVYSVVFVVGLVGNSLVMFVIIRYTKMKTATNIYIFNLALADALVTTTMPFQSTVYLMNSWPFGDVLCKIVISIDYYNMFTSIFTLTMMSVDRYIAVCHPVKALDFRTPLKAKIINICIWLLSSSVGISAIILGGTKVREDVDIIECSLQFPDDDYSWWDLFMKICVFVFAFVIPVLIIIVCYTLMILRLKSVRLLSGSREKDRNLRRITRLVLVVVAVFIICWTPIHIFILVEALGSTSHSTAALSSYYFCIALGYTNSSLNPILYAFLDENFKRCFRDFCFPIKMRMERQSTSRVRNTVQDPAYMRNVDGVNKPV
Description: Opioid receptor binding assay, [3H]U69,593, guinea pig brain membranes. As for the experimental part: as §1, §2, §3

Series [3] concerns the target σ receptors labelled by [^3H]DTG (σ1 + σ2). Briefly: Sigma receptor binding assay, [3H]DTG. As to conditions: read-out: IC50 ± SEM [^3H]DTG (σ1 + σ2); guinea pig brain membranes; compounds 1-5 tested up to 10 µM. As for the experimental part:
(§4) Filters were washed three times with 5 ml of ice-cold 10 mM Tris-HCI buffer (pH 8). The bound radioactivity was measured by liquid scintillation counting (Beckman Coulter™ LS6500). […] The values are expressed as the mean ± S.E.M of 2 - 4 independent experiments, each performed in duplicate.

Series [4] addresses T3, σ receptors labelled by [^3H](+)-pentazocine (σ1) (Cavia porcellus, UniProt Q60492).
T3 construct: from tissue; host or cells: guinea pig brain membranes
Description: Sigma receptor binding assay, [3H](+)-pentazocine. The arrangement: species or system guinea pig. As for the experimental part:
as §4

A further series deals with T4, δ opioid receptors (Rattus norvegicus, UniProt P33533).
T4 construct: Membrane fractions were prepared from Sprague-Dawley rat or guinea pig brains; from tissue; host or cells: Sprague-Dawley rat brain (without cerebella) membranes
T4 sequence (P33533 whole entry): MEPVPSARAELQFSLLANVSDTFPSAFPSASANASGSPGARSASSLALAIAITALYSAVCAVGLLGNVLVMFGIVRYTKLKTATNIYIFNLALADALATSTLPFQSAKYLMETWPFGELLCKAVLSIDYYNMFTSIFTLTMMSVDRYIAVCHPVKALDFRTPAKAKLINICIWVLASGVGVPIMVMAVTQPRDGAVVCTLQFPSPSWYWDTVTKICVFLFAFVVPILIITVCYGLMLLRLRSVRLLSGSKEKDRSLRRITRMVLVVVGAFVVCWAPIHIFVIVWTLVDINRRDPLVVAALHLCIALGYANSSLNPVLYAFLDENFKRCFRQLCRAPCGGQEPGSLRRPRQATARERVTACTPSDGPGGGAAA
Briefly: Opioid receptor binding assay, [3H][Ile5,6]deltorphin II, rat brain membranes. The arrangement: species or system Sprague-Dawley rat. As for the experimental part:
as §1, §2, §3

The test system of another series is C57BL/6N female mice. Description: Object recognition task.
Series [5] concerns frontal cortex synaptosomes. Description: ACh release from synaptosomes (15 mM K+-evoked [3H]-ACh release, superfusion). As to conditions: 0.1 to 100 µM. The series is classed as cell-based, male Sprague Dawley rats. On the procedure: Preparation of synaptosomes: synaptosomes were prepared from brain frontal cortex of male Sprague Dawley rats (4 months old). The frontal cortex was rapidly dissected on ice and homogenized in 40 volumes of 0.32 M sucrose buffered at pH 7.4 with 0.01 M sodium phosphate. The homogenate was centrifuged at 1,000 g for 5 min. The crude synaptosomal pellet was obtained by centrifugation of the supernatant at 15,000 g for 20 min and was resuspended in 5 ml basal medium (125 mM Nacl, 3 mM KCI, 1.2 mM MgS04, 1.2 mM CaCl2, 1.0 mM NaH2PO4, 22 mM NaHCO3 and 10 mM glucose) which had been gassed with 95% O2 - 5% CO2 at 37 °C, pH 7.2 - 7.4.
Superfusion protocol: The synaptosomal suspension was incubated with [^3H]-choline (0.03 µM, 17.5x10^6 Bq/g) for 15 min at 37 °C. Then, the suspension was diluted (1:8) and aliquots were applied on filters in a continuous superfusion system with parallel chambers maintained at 37 °C. The media used for superfusion were basal medium and 15 mM K^+-containing stimulation medium. Both media were supplemented with ACh (1 µM) to facilitate the effectiveness of an allosteric potentiating ligand at the nicotine receptor and with atropine (0.1 µM) to block M2 presynaptic receptors. Synaptosomes were superfused with basal medium for 30 min to reach a constant outflow of [^3H]-ACh. Under these experimental conditions, the radioactivity released consisted largely of newly synthesized [^3H]-ACh. The K^+-stimulated release of [^3H]-ACh was determined in 2 subsequently collected fractions: 6 min basal release (superfusion with basal medium) and 6 min K^+-evoked release (superfusion for 1.5 min with 15 mM K^+-containing medium followed by […] basal medium). The test compounds galantamine, 4 and 2 were present in the superfusion medium concomitantly with 15 mM K^+ (for 1.5 min). Basal release of [^3H]-ACh (continuous superfusion with basal medium) was determined by collection of a 6 min sample followed by four subsequent 2 min samples. Aliquots of samples were mixed with scintillation liquid and the radioactivity quantified with a scintillation counter. The radioactivity bound to the filters was also measured.
Statistical analysis: The amount of [^3H]-ACh released in each sample was calculated as fraction of total synaptosomal tritium at the start of the respective collection period (tritium in the sample / sum of tritium in the respective fractions and in the synaptosomes on the filter). K^+-evoked release was expressed as percentage of basal release rate. Each n=1 represents the mean of an experiment with one synaptosomal preparation in at least 3 superfusion chambers. Statistical significance of group variances was calculated by one way ANOVA followed by Bonferroni's test.

T1 sequence (O42275 24-633): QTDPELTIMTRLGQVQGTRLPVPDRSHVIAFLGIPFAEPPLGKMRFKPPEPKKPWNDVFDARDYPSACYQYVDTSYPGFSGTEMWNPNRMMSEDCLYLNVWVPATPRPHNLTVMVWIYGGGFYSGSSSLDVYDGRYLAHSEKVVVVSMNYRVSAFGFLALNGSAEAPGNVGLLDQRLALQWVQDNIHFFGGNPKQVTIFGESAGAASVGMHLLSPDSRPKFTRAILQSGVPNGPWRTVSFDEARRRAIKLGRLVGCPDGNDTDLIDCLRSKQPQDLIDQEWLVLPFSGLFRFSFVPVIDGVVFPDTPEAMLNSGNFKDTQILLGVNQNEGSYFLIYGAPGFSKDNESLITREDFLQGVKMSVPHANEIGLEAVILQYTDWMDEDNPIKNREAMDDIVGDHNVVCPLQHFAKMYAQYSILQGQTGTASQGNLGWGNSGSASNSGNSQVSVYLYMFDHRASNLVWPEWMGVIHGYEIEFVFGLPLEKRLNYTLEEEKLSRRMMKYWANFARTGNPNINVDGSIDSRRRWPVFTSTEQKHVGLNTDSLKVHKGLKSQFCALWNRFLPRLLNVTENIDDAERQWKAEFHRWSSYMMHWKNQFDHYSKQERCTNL
T3 sequence (Q60492 whole entry): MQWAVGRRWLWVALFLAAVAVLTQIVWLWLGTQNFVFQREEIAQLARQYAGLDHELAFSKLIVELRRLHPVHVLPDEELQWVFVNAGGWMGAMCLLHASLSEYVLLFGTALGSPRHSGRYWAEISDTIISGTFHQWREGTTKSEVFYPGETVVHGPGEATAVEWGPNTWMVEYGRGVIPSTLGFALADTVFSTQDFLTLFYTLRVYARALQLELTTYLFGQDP

For orientation: Ki means a dissociation constant, usually derived from enzyme kinetics or from competition with a known ligand. As usually defined, the IC50 is the concentration that gives 50% inhibition. With `O=CN1CC[C@]23CC(=O)CC[C@H]2[C@H]1CC1=C3C(=O)C=CC1=O` [Compound 2, 1,4-dione-N-formylmorphinan-6-one], the Ki was over 10 µM on µ opioid receptor ([3H]DAMGO, rat brain membranes, read-out: Opioid binding affinities Ki µ receptor); over 10 µM on µ opioid receptor (no specific binding, read-out: Ki, µ opioid receptor); over 10 µM at k opioid receptors ([3H]U69,593, guinea pig brain membranes, read-out: Opioid binding affinities Ki κ receptor); over 10 µM on k opioid receptors (no specific binding, read-out: Ki, k opioid receptor); over 10 µM on δ opioid receptors ([3H][Ile5,6]deltorphin II, rat brain membranes, read-out: Opioid binding affinities Ki δ receptor); over 10 µM at δ opioid receptors (no specific binding, read-out: Ki, δ opioid receptor). The IC50 is 12.7 µM in series [1] (96-well microplate, 1% DMSO, read-out: AChE inhibitory activity IC50); over 0.01 µM in series [3]; over 10 µM in series [4]. Besides, in series [2] (0.5 µmol i.c.v.), the “effect on ACh in the superfusate (in words)” value is on record as “short increase in ACh concentration followed by a decrease”. In series [2] (1 µmol and above, i.c.v., anaesthetized rats), the “toxicity at higher doses” value is reported as “could not be tested because of toxicity”. Besides, in series [2] (Dose 0.5 µmol i.c.v.), the “0AUC120 min (% increase x min) Mean ± SEM” value came to 98 ± 27 % increase x min. For the same compound, the “Increase in ACh release (Peak increase as % of basal output)” value in series [2] (Dose 0.5 µmol i.c.v.) was determined as 57 ± 14 %.
For `O=CN1CC[C@]23c4c5cccc4OC2C(=O)CC[C@H]3[C@H]1C5` (stereo in doubt) [Compound 3, 4,5-epoxy-N-formylmorphinan-6-one], the Ki on µ opioid receptor is over 10 µM; at µ opioid receptor (read-out: Opioid binding affinities Ki µ receptor, [3H]DAMGO, rat brain membranes), over 10 µM; on k opioid receptors it was over 10 µM; on k opioid receptors (read-out: Opioid binding affinities Ki κ receptor, [3H]U69,593, guinea pig brain membranes) it was over 10 µM; on δ opioid receptors, over 10 µM; on δ opioid receptors (read-out: Opioid binding affinities Ki δ receptor, [3H][Ile5,6]deltorphin II, rat brain membranes), over 10 µM. In addition, in the series with C57BL/6N female mice (normal mice, 0.02 µmol i.c.v.), the “object recognition (memory)” value is “did not influence the object recognition”. Besides, in the series on C57BL/6N female mice (scopolamine-pretreated mice, dose not given), the “effect on scopolamine-induced impairment of object recognition” value is given as “ineffective”. Besides, the figures for the IC50 in series [1], in series [3] and in series [4] were 60.3 µM, over 10 µM and over 10 µM, respectively. Also, in series [5], the “effect on K+-evoked ACh release in frontal-cortex synaptosomes” value is on record as “did not influence ACh release”. In addition, the “effect on ACh in the superfusate (in words)” value in [2] (1 µmol i.c.v.) is given as “increased ACh release”; in series [2] (2 µmol i.c.v.), “did not influence ACh up to 160 min followed by a decline thereafter”. Further, the results for the “0AUC120 min (% increase x min) Mean ± SEM” value in series [2] (Dose 1 µmol i.c.v.) and in series [2] (Dose 2 µmol i.c.v.) were 410 ± 227 % increase x min and 160 ± 140 % increase x min, respectively. Besides, the “Increase in ACh release (Peak increase as % of basal output)” value in [2] (Dose 1 µmol i.c.v.) came to 123 ± 91 %; in [2] (Dose 2 µmol i.c.v.), 75 ± 73%.
